Like-named read-outs stand apart in the source and are kept apart here.
Experiments:
Assay in all cases: KINOMEscan Assay (DiscoverX)
Format in all cases: binding
Details in all cases: read-out: % DMSO Ctrl
ROCK1 = biological target: T1, ROCK1 (Homo sapiens, UniProt Q13464)
T1 construct: purchased DiscoverX

KIT = biological target: T2, KIT (Homo sapiens, UniProt P10721)
T2 construct: purchased DiscoverX

ROCK2 = biological target: T3, ROCK2 (Homo sapiens, UniProt O75116)
T3 construct: purchased DiscoverX

IRAK4 = biological target: T4, IRAK4 (Homo sapiens, UniProt Q9NWZ3)
T4 construct: purchased DiscoverX
T4 sequence (Q9NWZ3 1-460): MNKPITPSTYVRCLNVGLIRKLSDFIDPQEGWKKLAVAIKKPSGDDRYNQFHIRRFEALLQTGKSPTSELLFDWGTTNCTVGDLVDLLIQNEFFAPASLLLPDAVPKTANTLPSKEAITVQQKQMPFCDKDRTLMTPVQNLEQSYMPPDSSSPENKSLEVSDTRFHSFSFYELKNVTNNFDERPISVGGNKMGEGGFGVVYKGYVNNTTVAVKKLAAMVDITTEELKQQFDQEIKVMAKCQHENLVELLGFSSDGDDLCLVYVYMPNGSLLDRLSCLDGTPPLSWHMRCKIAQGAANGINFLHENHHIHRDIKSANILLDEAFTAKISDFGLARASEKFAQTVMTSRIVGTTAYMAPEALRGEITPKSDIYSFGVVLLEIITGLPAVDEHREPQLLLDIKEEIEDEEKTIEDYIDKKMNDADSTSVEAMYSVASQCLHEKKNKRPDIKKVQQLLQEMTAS

CAMK2A = biological target: T5, CAMK2A (Homo sapiens, UniProt Q9UQM7)
T5 construct: purchased DiscoverX

PIK3CG = biological target: T6, PIK3CG (Homo sapiens, UniProt P48736)
T6 construct: purchased DiscoverX

CLK3 = biological target: T7, CLK3 (Homo sapiens, UniProt P49761)
T7 construct: purchased DiscoverX

LRRK2(G2019S) = biological target: T8, LRRK2(G2019S) (Homo sapiens, UniProt Q5S007, G2019S)
T8 construct: purchased DiscoverX

EGFR(G719C) = biological target: T9, EGFR(G719C) (Homo sapiens, UniProt P00533, G719C)
T9 construct: purchased DiscoverX

SGK = biological target: T10, SGK (Homo sapiens, UniProt O00141)
T10 construct: purchased DiscoverX
T10 sequence (O00141 1-431): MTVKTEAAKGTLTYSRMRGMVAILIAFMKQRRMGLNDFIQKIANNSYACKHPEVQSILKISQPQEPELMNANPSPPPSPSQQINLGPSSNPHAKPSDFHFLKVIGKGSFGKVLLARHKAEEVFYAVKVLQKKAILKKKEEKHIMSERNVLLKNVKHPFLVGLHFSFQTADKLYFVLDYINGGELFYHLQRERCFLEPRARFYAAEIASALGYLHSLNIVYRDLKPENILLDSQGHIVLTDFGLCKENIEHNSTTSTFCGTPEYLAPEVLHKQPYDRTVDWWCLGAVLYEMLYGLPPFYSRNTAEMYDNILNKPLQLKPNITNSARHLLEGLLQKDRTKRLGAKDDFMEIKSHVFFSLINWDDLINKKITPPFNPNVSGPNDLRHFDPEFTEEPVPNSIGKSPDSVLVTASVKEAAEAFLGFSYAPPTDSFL

PIK3CA(I800L) = biological target: T11, PIK3CA(I800L) (Homo sapiens, UniProt P42336, I800L)
T11 construct: purchased DiscoverX

CDK7 = biological target: T12, CDK7 (Homo sapiens, UniProt P50613)
T12 construct: purchased DiscoverX

DYRK2 = biological target: T13, DYRK2 (Homo sapiens, UniProt Q92630)
T13 construct: purchased DiscoverX
T13 sequence (Q92630 1-601): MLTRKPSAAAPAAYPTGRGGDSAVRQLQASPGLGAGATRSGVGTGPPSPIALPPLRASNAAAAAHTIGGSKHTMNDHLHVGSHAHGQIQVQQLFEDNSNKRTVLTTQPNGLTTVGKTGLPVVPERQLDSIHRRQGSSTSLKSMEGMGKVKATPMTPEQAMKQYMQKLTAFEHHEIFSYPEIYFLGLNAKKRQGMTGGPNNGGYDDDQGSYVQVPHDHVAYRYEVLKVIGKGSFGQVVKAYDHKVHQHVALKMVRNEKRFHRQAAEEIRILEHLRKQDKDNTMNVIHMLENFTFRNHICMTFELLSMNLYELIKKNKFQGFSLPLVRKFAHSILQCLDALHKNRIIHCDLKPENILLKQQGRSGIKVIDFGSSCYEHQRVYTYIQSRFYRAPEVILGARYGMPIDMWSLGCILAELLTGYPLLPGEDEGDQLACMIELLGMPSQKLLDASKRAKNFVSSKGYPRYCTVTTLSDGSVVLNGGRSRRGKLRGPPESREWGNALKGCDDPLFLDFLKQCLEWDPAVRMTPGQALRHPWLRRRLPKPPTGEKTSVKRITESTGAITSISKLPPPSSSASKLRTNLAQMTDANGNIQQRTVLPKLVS

PIM2 = biological target: T14, PIM2 (Homo sapiens, UniProt Q9P1W9)
T14 construct: purchased DiscoverX

HIPK2 = biological target: T15, HIPK2 (Homo sapiens, UniProt Q9H2X6)
T15 construct: purchased DiscoverX

PIK4CB = biological target: T16, PIK4CB (Homo sapiens, UniProt Q9UBF8)
T16 construct: purchased DiscoverX
T16 sequence (Q9UBF8 whole entry): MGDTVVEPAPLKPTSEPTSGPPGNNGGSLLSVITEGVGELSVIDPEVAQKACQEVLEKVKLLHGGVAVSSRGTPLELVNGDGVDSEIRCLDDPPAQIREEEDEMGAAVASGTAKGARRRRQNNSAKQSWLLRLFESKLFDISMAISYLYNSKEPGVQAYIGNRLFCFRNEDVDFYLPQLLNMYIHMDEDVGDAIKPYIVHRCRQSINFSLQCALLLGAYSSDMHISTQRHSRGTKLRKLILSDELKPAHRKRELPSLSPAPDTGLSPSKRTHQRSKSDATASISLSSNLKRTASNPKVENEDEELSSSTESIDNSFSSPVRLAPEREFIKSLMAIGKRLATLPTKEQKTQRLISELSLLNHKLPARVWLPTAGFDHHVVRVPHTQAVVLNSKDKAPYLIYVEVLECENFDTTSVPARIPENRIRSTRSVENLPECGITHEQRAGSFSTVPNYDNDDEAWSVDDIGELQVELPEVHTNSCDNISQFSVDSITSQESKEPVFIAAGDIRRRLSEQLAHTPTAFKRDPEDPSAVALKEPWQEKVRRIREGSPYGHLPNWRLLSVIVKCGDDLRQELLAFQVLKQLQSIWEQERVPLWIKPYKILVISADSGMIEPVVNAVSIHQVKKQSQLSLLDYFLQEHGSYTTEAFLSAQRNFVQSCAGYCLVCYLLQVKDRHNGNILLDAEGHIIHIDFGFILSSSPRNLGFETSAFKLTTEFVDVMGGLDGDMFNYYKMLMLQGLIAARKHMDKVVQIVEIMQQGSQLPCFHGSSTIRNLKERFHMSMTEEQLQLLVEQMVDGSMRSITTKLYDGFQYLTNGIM

T1 sequence (Q13464 whole entry): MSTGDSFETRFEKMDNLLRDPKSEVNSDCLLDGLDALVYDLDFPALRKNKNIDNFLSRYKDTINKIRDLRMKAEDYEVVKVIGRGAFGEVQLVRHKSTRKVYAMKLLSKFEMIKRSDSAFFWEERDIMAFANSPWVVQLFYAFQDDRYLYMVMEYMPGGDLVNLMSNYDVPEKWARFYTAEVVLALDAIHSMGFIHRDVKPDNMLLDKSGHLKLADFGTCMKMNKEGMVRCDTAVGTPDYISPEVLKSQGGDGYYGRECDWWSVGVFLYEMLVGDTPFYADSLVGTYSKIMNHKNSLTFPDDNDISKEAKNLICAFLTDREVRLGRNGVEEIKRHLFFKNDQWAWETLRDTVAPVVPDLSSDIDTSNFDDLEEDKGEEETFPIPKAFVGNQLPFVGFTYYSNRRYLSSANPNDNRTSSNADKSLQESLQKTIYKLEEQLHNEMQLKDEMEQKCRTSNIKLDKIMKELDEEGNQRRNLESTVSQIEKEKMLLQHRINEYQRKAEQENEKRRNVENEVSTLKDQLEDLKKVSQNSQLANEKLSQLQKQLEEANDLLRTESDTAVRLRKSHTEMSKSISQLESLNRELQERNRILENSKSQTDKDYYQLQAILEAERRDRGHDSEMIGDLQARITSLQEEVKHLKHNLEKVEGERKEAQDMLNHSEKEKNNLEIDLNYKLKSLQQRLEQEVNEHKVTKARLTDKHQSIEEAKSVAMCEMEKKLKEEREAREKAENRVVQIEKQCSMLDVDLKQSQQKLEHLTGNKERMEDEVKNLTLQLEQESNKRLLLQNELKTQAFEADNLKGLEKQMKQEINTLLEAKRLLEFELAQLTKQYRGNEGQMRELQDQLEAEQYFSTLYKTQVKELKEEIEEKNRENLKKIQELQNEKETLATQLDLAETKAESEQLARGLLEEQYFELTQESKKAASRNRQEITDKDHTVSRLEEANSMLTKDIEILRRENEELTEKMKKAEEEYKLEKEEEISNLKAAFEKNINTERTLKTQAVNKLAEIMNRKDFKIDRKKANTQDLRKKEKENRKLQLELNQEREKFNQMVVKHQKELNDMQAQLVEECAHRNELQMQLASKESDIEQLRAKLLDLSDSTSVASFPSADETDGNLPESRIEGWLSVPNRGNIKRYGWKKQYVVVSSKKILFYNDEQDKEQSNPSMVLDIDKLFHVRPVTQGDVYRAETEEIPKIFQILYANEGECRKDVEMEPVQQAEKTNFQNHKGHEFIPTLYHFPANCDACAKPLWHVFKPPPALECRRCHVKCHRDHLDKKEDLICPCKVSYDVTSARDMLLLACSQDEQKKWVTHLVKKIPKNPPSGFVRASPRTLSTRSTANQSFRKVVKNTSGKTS
T2 sequence (P10721 26-976): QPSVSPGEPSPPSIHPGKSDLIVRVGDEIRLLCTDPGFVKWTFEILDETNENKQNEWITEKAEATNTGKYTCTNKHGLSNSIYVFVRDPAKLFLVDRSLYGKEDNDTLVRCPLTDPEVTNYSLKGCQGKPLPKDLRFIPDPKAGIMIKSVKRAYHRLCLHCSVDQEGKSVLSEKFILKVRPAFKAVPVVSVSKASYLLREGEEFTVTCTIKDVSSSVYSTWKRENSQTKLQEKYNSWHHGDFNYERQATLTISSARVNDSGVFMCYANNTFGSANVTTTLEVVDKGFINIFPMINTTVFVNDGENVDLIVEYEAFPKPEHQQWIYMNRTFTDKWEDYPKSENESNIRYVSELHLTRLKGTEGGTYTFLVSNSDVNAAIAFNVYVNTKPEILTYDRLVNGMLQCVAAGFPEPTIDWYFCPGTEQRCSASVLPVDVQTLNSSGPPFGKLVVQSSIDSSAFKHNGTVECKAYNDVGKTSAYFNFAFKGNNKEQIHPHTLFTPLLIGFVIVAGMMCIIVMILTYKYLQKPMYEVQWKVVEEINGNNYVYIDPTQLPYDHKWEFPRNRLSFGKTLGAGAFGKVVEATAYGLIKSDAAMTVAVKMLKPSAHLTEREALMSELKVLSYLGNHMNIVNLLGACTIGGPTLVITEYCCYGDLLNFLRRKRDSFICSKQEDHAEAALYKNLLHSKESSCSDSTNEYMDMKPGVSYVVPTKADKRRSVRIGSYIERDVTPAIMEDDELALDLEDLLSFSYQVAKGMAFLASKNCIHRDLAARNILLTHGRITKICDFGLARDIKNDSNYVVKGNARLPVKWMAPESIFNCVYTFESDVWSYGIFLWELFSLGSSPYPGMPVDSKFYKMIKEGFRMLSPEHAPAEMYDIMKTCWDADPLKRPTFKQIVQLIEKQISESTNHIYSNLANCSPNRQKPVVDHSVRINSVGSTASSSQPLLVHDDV
T11 sequence (P42336 whole entry I800L): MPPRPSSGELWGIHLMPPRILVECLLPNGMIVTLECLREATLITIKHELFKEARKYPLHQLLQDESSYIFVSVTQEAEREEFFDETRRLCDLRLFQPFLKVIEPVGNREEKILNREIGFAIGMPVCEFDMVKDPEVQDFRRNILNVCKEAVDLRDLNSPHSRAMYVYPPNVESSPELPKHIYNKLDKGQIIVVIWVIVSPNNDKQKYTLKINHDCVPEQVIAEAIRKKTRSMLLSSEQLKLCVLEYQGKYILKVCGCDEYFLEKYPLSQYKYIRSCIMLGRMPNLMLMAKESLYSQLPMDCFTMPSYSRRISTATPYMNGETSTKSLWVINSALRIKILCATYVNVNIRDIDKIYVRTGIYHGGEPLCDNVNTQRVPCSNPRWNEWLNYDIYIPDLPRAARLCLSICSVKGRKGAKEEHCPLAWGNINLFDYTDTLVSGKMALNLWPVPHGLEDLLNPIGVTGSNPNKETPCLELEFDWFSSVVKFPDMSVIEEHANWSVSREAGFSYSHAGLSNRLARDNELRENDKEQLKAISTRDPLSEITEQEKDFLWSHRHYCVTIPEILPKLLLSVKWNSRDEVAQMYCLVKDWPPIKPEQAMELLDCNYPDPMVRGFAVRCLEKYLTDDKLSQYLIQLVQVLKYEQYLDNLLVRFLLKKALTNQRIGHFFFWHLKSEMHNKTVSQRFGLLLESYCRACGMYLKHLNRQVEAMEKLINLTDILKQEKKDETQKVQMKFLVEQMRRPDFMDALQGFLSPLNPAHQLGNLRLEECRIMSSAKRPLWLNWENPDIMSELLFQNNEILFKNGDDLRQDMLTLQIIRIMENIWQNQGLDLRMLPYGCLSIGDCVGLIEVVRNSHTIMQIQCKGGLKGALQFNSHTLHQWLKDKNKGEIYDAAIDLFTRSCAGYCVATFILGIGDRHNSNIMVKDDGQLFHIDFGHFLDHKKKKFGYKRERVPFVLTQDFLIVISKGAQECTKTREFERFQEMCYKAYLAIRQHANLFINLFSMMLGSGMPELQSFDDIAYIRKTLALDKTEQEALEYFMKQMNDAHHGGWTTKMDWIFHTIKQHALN
T5 sequence (Q9UQM7 whole entry): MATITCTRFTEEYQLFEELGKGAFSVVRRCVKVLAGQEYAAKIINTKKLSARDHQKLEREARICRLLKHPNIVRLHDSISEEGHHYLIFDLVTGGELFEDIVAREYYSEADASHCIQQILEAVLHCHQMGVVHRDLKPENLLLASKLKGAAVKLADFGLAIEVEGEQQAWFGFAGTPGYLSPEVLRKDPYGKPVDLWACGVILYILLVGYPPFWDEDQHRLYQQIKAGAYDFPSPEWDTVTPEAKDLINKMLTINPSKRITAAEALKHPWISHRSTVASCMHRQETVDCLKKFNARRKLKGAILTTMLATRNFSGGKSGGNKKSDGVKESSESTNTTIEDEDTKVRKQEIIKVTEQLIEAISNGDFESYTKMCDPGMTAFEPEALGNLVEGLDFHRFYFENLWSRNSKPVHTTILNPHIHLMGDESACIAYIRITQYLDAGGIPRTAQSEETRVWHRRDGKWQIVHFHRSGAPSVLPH
T12 sequence (P50613 whole entry): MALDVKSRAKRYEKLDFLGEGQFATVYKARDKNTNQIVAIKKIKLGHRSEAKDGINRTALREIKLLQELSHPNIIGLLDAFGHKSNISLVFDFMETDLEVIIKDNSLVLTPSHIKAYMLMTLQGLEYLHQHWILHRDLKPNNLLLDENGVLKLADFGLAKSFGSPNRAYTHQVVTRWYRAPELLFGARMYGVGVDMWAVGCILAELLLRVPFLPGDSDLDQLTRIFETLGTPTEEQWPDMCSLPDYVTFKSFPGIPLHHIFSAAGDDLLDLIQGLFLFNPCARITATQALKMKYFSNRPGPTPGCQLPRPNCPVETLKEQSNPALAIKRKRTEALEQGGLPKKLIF

## COc1ccc2c(c1)[nH]c1c(C)nc(CO)cc12 [Compound 2-8, (1-Methyl-7-methoxy-9H-pyrido[3,4-b]indol-3-yl)methanol]
ROCK1; ROCK1, 10 μM
  remaining binding at 10 µM: 33%
KIT; KIT, 10 μM
  remaining binding at 10 µM: 98%
ROCK2; ROCK2, 10 μM
  remaining binding at 10 µM: 88%
IRAK4; IRAK4, 10 μM
  remaining binding at 10 µM: 70%
CAMK2A; CAMK2A, 10 μM
  remaining binding at 10 µM: 53%
PIK3CG; PIK3CG, 10 μM
  remaining binding at 10 µM: 67%
CLK3; CLK3, 10 μM
  remaining binding at 10 µM: 36%
LRRK2(G2019S); LRRK2(G2019S) mutant, 10 μM
  remaining binding at 10 µM: 98%
EGFR(G719C); EGFR(G719C) mutant, 10 μM
  remaining binding at 10 µM: 98%
SGK; SGK, 10 μM
  remaining binding at 10 µM: 31%
PIK3CA(I800L); PIK3CA(I800L) mutant, 10 μM
  remaining binding at 10 µM: 63%

## COc1ccc2c3ccnc(C)c3n(CCCc3noc(N)n3)c2c1 [Compound 20-13, 3-(3-(7-Methoxy-1-methyl-β-carbolin-9-yl)propyl)-5-amino-1,2,4-oxadiazole]
CDK7
  remaining binding at 10 µM: 51%
ROCK1
  remaining binding at 10 µM: 24%
DYRK2
  remaining binding at 10 µM: 9.1%
PIM2
  remaining binding at 10 µM: 38%
KIT
  remaining binding at 10 µM: 100%
ROCK2
  remaining binding at 10 µM: 86%
IRAK4
  remaining binding at 10 µM: 90%
CAMK2A
  remaining binding at 10 µM: 72%
HIPK2
  remaining binding at 10 µM: 2.3%
PIK3CG
  remaining binding at 10 µM: 3.3%
CLK3
  remaining binding at 10 µM: 54%
LRRK2(G2019S)
  remaining binding at 10 µM: 5.1%
EGFR(G719C)
  remaining binding at 10 µM: 93%
PIK4CB
  remaining binding at 10 µM: 9.9%
SGK
  remaining binding at 10 µM: 90%
PIK3CA(I800L)
  remaining binding at 10 µM: 10%

## C#CCn1c2cc(OC)ccc2c2ccnc(C)c21 [Compound 20-23a, 3-(7-Methoxy-1-methyl-β-carbolin-9-yl)-propan-1-yne]
CDK7; CDK7, 10 μM
  remaining binding at 10 µM: 0.8%
ROCK1; ROCK1, 10 μM
  remaining binding at 10 µM: 9.2%
DYRK2
  remaining binding at 10 µM: 5.2%
PIM2; PIM2, 10 μM
  remaining binding at 10 µM: 19%
KIT
  remaining binding at 10 µM: 83%
ROCK2
  remaining binding at 10 µM: 16%
IRAK4
  remaining binding at 10 µM: 6.4%
CAMK2A
  remaining binding at 10 µM: 13%
HIPK2; HIPK2, 10 μM
  remaining binding at 10 µM: 71%
PIK3CG
  remaining binding at 10 µM: 42%
CLK3
  remaining binding at 10 µM: 19%
LRRK2(G2019S)
  remaining binding at 10 µM: 100%
EGFR(G719C)
  remaining binding at 10 µM: 92%
PIK4CB; PIK4CB, 10 μM
  remaining binding at 10 µM: 0%
SGK
  remaining binding at 10 µM: 63%
PIK3CA(I800L)
  remaining binding at 10 µM: 73%

## COc1ccc2c(c1)[nH]c1c(C)nccc12 [Harmine, reference compound]
CDK7
  remaining binding at 10 µM: 21%
ROCK1
  remaining binding at 10 µM: 26%
DYRK2
  remaining binding at 10 µM: 3.2%
PIM2
  remaining binding at 10 µM: 39%
HIPK2
  remaining binding at 10 µM: 8.6%
PIK4CB
  remaining binding at 10 µM: 12%

— US12421232B2, “Kinase inhibitor compounds and compositions and methods of use” (ICAHN SCHOOL OF MEDICINE AT MOUNT SINAI, priority 2018, dated 2025)
